Here are results for six compounds from US8388960B2, “Elimination of heterogeneous or mixed cell population in tumors” (priority 2005, dated 2013).

A short description of data set [1]: Thiol-disulfide interchange of DM4 in RPMI 1640 medium. The settings on record: buffer.
Protocol: To further test whether any of the metabolites in the media was a disulfide compound, a cell supernatant sample from a 26-hour exposure was divided into two equal portions of which one was subjected directly to chromatography, and the other portion was treated with DTT and selenol before chromatography to reduce all disulfide bonds (18).
Data set [2] has as its system antigen-positive COLO 205 cells. Put plainly: MTT-based cytotoxicity assay, COLO 205 cells (Example 2). It counts as cell-based, human. The following applies: conjugates 4-day exposure. The method, then: (§1) The anti-tumor activity of the two conjugates was assessed in SCID mice bearing subcutaneous HT-29 or COLO 205 tumors (both CanAg-positive human colon adenocarcinoma).
(§2) The two major metabolites, S-methyl-DM4 and lysine-N^ε—SMCC-DM1, were synthesized and tested for their in vitro cytotoxicity against COLO 205 cells and Namalwa cells.
On the technique in general: Formazan colour is commonly taken as a measure of viable cells.

Data set [3] deals with antigen-negative Namalwa cells. Nature of the data set: MTT-based cytotoxicity assay, Namalwa cells (Example 2). It counts as cell-based, human. The settings on record: free maytansinoids. The method, then: as §1, §2
A further data set deals with COLO 205 cells. Nature of the data set: Cell cycle studies (G2/M arrest, DNA content by FACS) in COLO 205 cells. It counts as cell-based, human.
For data set [4] the following is noted: single intravenous dose of 12.5 μg/kg; cited from earlier work.

As usually defined, the half-life is how long it takes for the measured level to halve. As usually defined, the IC50 is the point on the concentration scale where inhibition reaches its midpoint. Higher therefore signals a need for much substance.

On to `COc1cc2cc(c1Cl)N(C)C(=O)CC(OC(=O)C(C)N(C)C(=O)CCC(C)(C)S)C1(C)OC1C(C)C1CC(O)(NC(=O)O1)C(OC)/C=C/C=C(\C)C2` (stereo not drawn) [DM4, N^2′-deacetyl-N-^2′(4-methyl-4-mercapto-1-oxopentyl)-maytansine], for which the half-life in data set [1] was less than 1 h.

Turning to `COc1cc2cc(c1Cl)N(C)C(=O)C[C@H](OC(=O)[C@H](C)N(C)C(=O)CCC(C)(C)SC)[C@]1(C)O[C@H]1[C@H](C)[C@@H]1C[C@@](O)(NC(=O)O1)[C@H](OC)/C=C/C=C(\C)C2` [S-methyl-DM4, N^2′-deacetyl-N^2′-(4-methylthio-4-methyl-1-oxopentyl)-maytansine], the IC50 in data set [2] and in data set [3] was 2 pM each time.

With `COc1cc2cc(c1Cl)N(C)C(=O)C[C@H](OC(=O)[C@H](C)N(C)C(=O)CCSSC)[C@]1(C)O[C@H]1[C@H](C)[C@@H]1C[C@@](O)(NC(=O)O1)[C@H](OC)/C=C/C=C(\C)C2` [DM1-SMe, N^2′-deacetyl-N^2′-[(3-methyldithio)-1-oxopropyl]-maytansine], in the data set on COLO 205 cells (20 h, 30 μM chloroquine, 10^−8 M DM1-SMe, 3×10^−9 M huC242-SMCC-DM1), the “cells in G2 in the presence of chloroquine” value is recorded as 51%. Also, the “cells in G2/M phase after release from aphidicolin” value in the data set with COLO 205 cells (synchronized cells, after 10 h and after 18 h) is 75% to 85%.

As for `COc1c(O)c2c(c3cc(C(=O)N4CCc5c4c(O)c(OC)c4[nH]c(C(=O)N6CC7CC78C6=CC(=O)c6[nH]cc(C)c68)cc54)[nH]c13)CCN2C(N)=O` (stereo not drawn) [CC-1065], the “toxicity after administration to mice” value in data set [4] was “delayed hepatotoxicity leading to mortality on day 50”.

As to `COc1cc2cc(c1Cl)N(C)C(=O)C[C@H](OC(=O)[C@H](C)N(C)C(C)=O)[C@]1(C)O[C@H]1[C@H](C)[C@@H]1C[C@@](O)(NC(=O)O1)[C@H](OC)/C=C/C=C(\C)C2` [maytansine, reference compound], the 50% inhibitory concentration (IC50) in data set [2] (Homo sapiens, COLO 205, 96 h) was in the range of 30 to 60 pM; in data set [3] (Homo sapiens), 30 to 60 pM.

Consider `CO/C1=C\C(C)=C\[C@@H](C)[C@@H](O)[C@@H](C)C/C(C)=C/C=C/[C@H](OC)[C@@H]([C@@H](C)[C@@H](O)[C@H](C)[C@@]2(O)C[C@@H](O)[C@H](C)[C@@H](C(C)C)O2)OC1=O` [BafA1, Bafilomycin A1, reference compound], for which the “distribution of cells between the phases of the cell cycle” value in the data set with COLO 205 cells (BafA1 alone) is recorded as “did not significantly alter the distribution of cells”.
